Test results taken from patent US20090156517A1, “STABLE PHARMACEUTICAL COMPOSITIONS OF AMINOGLYCOSIDE ANTIBIOTICS, ION-CHELATING AGENTS, AND BUFFERS” (priority 2006, published 2009).
Entries after “also recorded” stand apart in the source; their conditions may differ.

Tests used:
[1] = HIAC light obscuration test (USP 788), aggregate particle content; assay type: physicochemical; details: composition prepared as a liquid solution
Description: Light obscuration testing was performed for solution preparations prepared with some of the compositions described in the examples according to the method described in the United States Pharmacopeia (USP 788) using HIAC-3000 light obscuration detector. Particle content is denoted by the number of particles per milliliter of solution. The value is an average of two measurements. Samples were tested at 1 hour and at 20 hours.

[2] = Amounts of antibiotic components in the solution over time (reverse-phase LC/UV for β-lactams and β-lactamase inhibitors, HPLC/evaporation-light-scattering for aminoglycosides); assay type: physicochemical; details: room temperature
Description: The amounts of β-lactam antibiotics and β-lactamase inhibitor were determined using C18 reverse-phase LC and UV-VIS detector (Tianjin […] Co., Ltd., analysis method No. HM-K-03). The content of aminoglycoside antibiotics was measured using reverse-phase HPLC and evaporation-light-scattering detector (Tianjin […] Co., Ltd., analysis method No. HM-K-08). […] The relative amount of each antibiotic component in the composition at each time point was expressed as peak area ratio with respect to the corresponding peak area of an external standard.

In the case of `O=C(O)CN(CCN(CC(=O)O)CC(=O)O)CC(=O)O` [EDTA, ethylenediamine tetraacetic acid], the “Effect on aggregate particle formation in the solution preparations” value [1] is reported as “significantly reduce aggregate particle formation; also recorded: effective in inhibiting formation of aggregate particles”.

In the case of `C[C@]1(Cn2ccnn2)[C@H](C(=O)O)N2C(=O)C[C@H]2S1(=O)=O` [Tazobactam sodium, tazobactam sodium], the “Amount of component, percentage of amount at initial time” value ([2]; Example 8 solution (ceftriaxone sodium, tazobactam sodium, gentamicin sulfate, sodium citrate pH 6.75), 0 h) is reported as 102.2%, the “Amount of component, percentage of amount at initial time” value ([2]; Example 8 solution (ceftriaxone sodium, tazobactam sodium, gentamicin sulfate, sodium citrate pH 6.75), 1 h) is reported as 97.53% and the “Amount of component, percentage of amount at initial time” value ([2]; Example 8 solution (ceftriaxone sodium, tazobactam sodium, gentamicin sulfate, sodium citrate pH 6.75), 2 h) is reported as 94.16%. For the same compound, the “Amount of component, percentage of amount at initial time” value ([2]; Example 8 solution (ceftriaxone sodium, tazobactam sodium, gentamicin sulfate, sodium citrate pH 6.75), 4 h) was 94.58%, the “Amount of component, percentage of amount at initial time” value ([2]; Example 8 solution (ceftriaxone sodium, tazobactam sodium, gentamicin sulfate, sodium citrate pH 6.75), 6 h) was 95.45% and the “Amount of component, percentage of amount at initial time” value ([2]; Example 8 solution (ceftriaxone sodium, tazobactam sodium, gentamicin sulfate, sodium citrate pH 6.75), 8 h) was 94.44%. For the same compound, the “Amount of component, percentage of amount at initial time” value ([2]; Example 14: cefoperazone sodium/tazobactam sodium solution pH 6.75, disodium EDTA and amikacin sulfate added, 0 h) was 98.5%, the “Amount of component, percentage of amount at initial time” value ([2]; Example 14: cefoperazone sodium/tazobactam sodium solution pH 6.75, disodium EDTA and amikacin sulfate added, 1 h) was 98.7% and the “Amount of component, percentage of amount at initial time” value ([2]; Example 14: cefoperazone sodium/tazobactam sodium solution pH 6.75, disodium EDTA and amikacin sulfate added, 2 h) was 98.2%. For the same compound, the “Amount of component, percentage of amount at initial time” value ([2]; Example 14: cefoperazone sodium/tazobactam sodium solution pH 6.75, disodium EDTA and amikacin sulfate added, 4 h) was 95.6%, the “Amount of component, percentage of amount at initial time” value ([2]; Example 14: cefoperazone sodium/tazobactam sodium solution pH 6.75, disodium EDTA and amikacin sulfate added, 6 h) was 94.0% and the “Amount of component, percentage of amount at initial time” value ([2]; Example 14: cefoperazone sodium/tazobactam sodium solution pH 6.75, disodium EDTA and amikacin sulfate added, 8 h) was 96.1%.

In the case of gentamicin, the “Amount of component, percentage of amount at initial time” value ([2]; Example 5 solution (cefoperazone sodium, sulbactam sodium, gentamicin, disodium EDTA, sodium citrate pH 6.75), 0 h) is reported as 102.1%, the “Amount of component, percentage of amount at initial time” value ([2]; Example 5 solution (cefoperazone sodium, sulbactam sodium, gentamicin, disodium EDTA, sodium citrate pH 6.75), 1 h) is reported as 104.6% and the “Amount of component, percentage of amount at initial time” value ([2]; Example 5 solution (cefoperazone sodium, sulbactam sodium, gentamicin, disodium EDTA, sodium citrate pH 6.75), 2 h) is reported as 96.51%. The “Amount of component, percentage of amount at initial time” value ([2]; Example 5 solution (cefoperazone sodium, sulbactam sodium, gentamicin, disodium EDTA, sodium citrate pH 6.75), 4 h) was 100.4%.
